Measurements: patent US12083094B2, “Cannabinoid composition and methods of treatment using the same” (CANNPAL ANIMAL THERAPEUTICS LIMITED, priority 2018, dated 2024)

Test: Blood sampling for THC and CBD plasma concentration after single oral dosing
Settings: oral
Experimental: Two compositions, IVP1 and IVP2, were administered in varying amounts in the study.
Dosage volumes were calculated prior to Day 0, to provide the target dosage in mg/kg bodyweight based on actual dog bodyweights and IVP active ingredient composition based on the Certificates of Analysis.
Blood samples of approximately 5 mL were collected at each drug concentration sampling time-point from each animal using 22-gauge needles and 5 mL syringes.
The data points from Table 4 and Table 5 were also plotted and these graphs are set out in FIGS. 1-16.

[1] = dog, plasma, CBD concentration in blood plasma, individual dogs 1-4, 0.12 mg/kg CBD + 0.24 mg/kg THC oral once
[2] = dog, plasma, CBD concentration in blood plasma, individual dogs 5-8, 0.24 mg/kg CBD + 0.12 mg/kg THC oral once
[3] = dog, plasma, CBD concentration in blood plasma, mean of dogs 1-4, 0.12 mg/kg CBD + 0.24 mg/kg THC oral once
[4] = dog, plasma, CBD concentration in blood plasma, mean of dogs 5-8, 0.24 mg/kg CBD + 0.12 mg/kg THC oral once

## C=C(C)[C@@H]1CCC(C)=C[C@H]1c1c(O)cc(CCCCC)cc1O [CBD, Cannabidiol]
canine
  AUC of CBD after 0.12 mg/kg THC/0.24 mg/kg CBD relative to AUC of CBD after 0.24 mg/kg THC/0.12 mg/kg CBD: more than twice
[1]
  concentration at 0 h: 0 ng/mL
  concentration at 1.5 h: 7.5 ng/mL
  concentration at 2 h: 6.27 ng/mL
  concentration at 32 h: 0 ng/mL
[2]
  concentration at 0 h: 0 ng/mL
  concentration at 2 h: 23.7 ng/mL
  concentration at 3 h: 9.21 ng/mL
  concentration at 4 h: 5.28 ng/mL
  concentration at 12 h: 0.88 ng/mL
  concentration at 16 h: 0.55 ng/mL
  concentration at 24 h: 0.38 ng/mL
  concentration at 32 h: 0.28 ng/mL
dog, plasma, CBD concentration in blood plasma, individual dogs 5-8, 0.24 mg/kg CBD + 0.12 mg/kg THC oral once, 72 h
  concentration at 72 h: 0 ng/mL
[3]
  concentration at 0 h: 0 ng/mL
  concentration at 0.67 h: 12.3 ng/mL
  concentration at 1 h: 11.2 ng/mL
  concentration at 1.5 h: 8.6 ng/mL
  concentration at 2 h: 6.89 ng/mL
  concentration at 3 h: 4.31 ng/mL
  concentration at 4 h: 2.9 ng/mL
  concentration at 6 h: 2.02 ng/mL
  concentration at 8 h: 1.3 ng/mL
  concentration at 12 h: 0.41 ng/mL
  concentration at 16 h: 0.16 ng/mL
  concentration at 24 h: 0.11 ng/mL
  concentration at 32 h: 0 ng/mL
[4]
  concentration at 0 h: 0 ng/mL
  concentration at 0.67 h: 30.1 ng/mL
  concentration at 1 h: 35.8 ng/mL
  concentration at 1.5 h: 26.9 ng/mL
  concentration at 2 h: 17.9 ng/mL
  concentration at 3 h: 7.5 ng/mL
  concentration at 4 h: 4.53 ng/mL
  concentration at 6 h: 3.31 ng/mL
  concentration at 8 h: 2.79 ng/mL
  concentration at 12 h: 0.77 ng/mL
  concentration at 16 h: 0.54 ng/mL
  concentration at 24 h: 0.35 ng/mL
